The target of the test is DAFP-1. Kind of test: Hummel-Dreyer size-exclusion HPLC, Klotz plot. It is filed as binding, Dendroides canadensis. To be noted: 0.10 M Na2SO4, 0.05% NaN3, 0.10 M NaPi, pH 7.00, ambient temperature; 1:1 stoichiometry. On the technique in general: SEC sorts molecules by how far they enter the pores of the column.

One may read the Kd as a measure of binding affinity in units of concentration. High values mean lower affinity, low ones higher affinity.

Take `NC(=O)C1=CN([C@@H]2O[C@H](COP(=O)(O)OP(=O)(O)OC[C@H]3O[C@@H](n4cnc5c(N)ncnc54)[C@H](O)[C@@H]3O)[C@@H](O)[C@H]2O)C=CC1` [NADH, β-nicotinamide adenine dinucleotide, reduced]: the Kd amounted to 280 ± 20 nM.
